Results on 20 molecules are retold here after ChEMBL document CHEMBL4368866, “Discovery of a 3,4,5-trisubstituted-1,2,4-triazole agonist with high affinity and selectivity at the somatostatin subtype-4 (sst4) receptor” (Medchemcomm, 2018).

Experiment [1] has as its target T1, Somatostatin receptor type 2 (Homo sapiens, UniProt P30874). The experiment can be described thus: Displacement of [125I]-Tyr-SRIF from recombinant human SST2A receptor expressed in CHOK1 cell membranes after 90 mins by gamma counting method.
The target in experiment [2] is T2, Somatostatin receptor type 4 (Homo sapiens, UniProt P31391). The experiment can be described thus: Displacement of [125I]-Tyr-SRIF from recombinant human SST4 receptor expressed in CHOK1 cell membranes after 90 mins by gamma counting method. (In general: Displacement assays read how much labelled ligand stays bound in the presence of the test substance.)
T2 sequence (P31391 whole entry): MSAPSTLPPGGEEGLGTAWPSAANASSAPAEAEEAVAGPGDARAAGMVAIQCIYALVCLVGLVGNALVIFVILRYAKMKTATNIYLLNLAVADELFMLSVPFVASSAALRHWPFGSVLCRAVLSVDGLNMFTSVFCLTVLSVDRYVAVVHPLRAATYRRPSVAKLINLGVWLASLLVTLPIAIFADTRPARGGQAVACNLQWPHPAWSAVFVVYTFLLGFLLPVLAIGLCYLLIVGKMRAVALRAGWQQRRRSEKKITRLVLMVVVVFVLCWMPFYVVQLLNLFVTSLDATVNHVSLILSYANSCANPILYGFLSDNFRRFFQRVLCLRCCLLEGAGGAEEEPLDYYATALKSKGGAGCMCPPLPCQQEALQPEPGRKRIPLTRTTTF
The target of experiment [3] is T1, Somatostatin receptor type 2. The experiment can be described thus: Displacement of 3-[125I]iodotyrosyl25-somatostatin-28 from recombinant human SST2 receptor expressed in CHOK1 cell membranes after 45 mins by scintillation counting method.
Experiment [4] deals with T2, Somatostatin receptor type 4. Put plainly: Displacement of 3-[125I]iodotyrosyl25-somatostatin-28 from recombinant human SST4 receptor expressed in CHOK1 cell membranes after 45 mins by scintillation counting method.
Experiment [5] has as its target T1, Somatostatin receptor type 2. The experiment can be described thus: Displacement of [125I]-LTT-SRIF-28 from recombinant human SST2 receptor expressed in CHO cell membranes after 60 mins by scintillation counting method.
The species entered for experiment [6] is Homo sapiens. The experiment can be described thus: Selectivity ratio of Ki for displacement of [125I]-Tyr-SRIF from SST5 receptor (unknown origin) to Ki for displacement of [125I]-Tyr-SRIF from recombinant human SST4 receptor expressed in CHOK1 cell membranes.
For experiment [7], the species on record is Homo sapiens. Put plainly: Selectivity ratio of Ki for displacement of [125I]-Tyr-SRIF from SST1 receptor (unknown origin) to Ki for displacement of [125I]-Tyr-SRIF from recombinant human SST4 receptor expressed in CHOK1 cell membranes.
The target in experiment [8] is Somatostatin receptor type 5 (Homo sapiens, UniProt P35346). Put plainly: Displacement of [125I]-Tyr-SRIF from SST5 receptor (unknown origin) after 90 mins by gamma counting method.
Chain of Somatostatin receptor type 5 (P35346 whole entry): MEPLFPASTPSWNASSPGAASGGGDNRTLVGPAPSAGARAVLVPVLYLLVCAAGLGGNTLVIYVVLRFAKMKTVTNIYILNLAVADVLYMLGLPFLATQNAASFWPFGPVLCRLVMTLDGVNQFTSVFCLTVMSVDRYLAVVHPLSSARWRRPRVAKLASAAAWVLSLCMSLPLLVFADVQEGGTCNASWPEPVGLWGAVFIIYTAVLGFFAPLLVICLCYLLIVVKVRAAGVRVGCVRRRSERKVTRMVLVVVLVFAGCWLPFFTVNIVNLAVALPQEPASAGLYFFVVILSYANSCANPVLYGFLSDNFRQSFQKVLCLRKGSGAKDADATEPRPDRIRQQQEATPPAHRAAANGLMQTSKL
Experiment [9] addresses Somatostatin receptor type 3 (Homo sapiens, UniProt P32745). The experiment can be described thus: Displacement of [125I]-Tyr-SRIF from SST3 receptor (unknown origin) after 90 mins by gamma counting method.
In experiment [10] the target is T2, Somatostatin receptor type 4. Put plainly: Agonist activity at recombinant human SST4 receptor expressed in CHOK1 cell membranes assessed as inhibition of forskolin-stimulated cAMP accumulation measured after 2.5 to 20 hrs by TR-FRET assay. Format: functional, cell-based. (In general: cAMP levels reflect the balance of adenylyl cyclase and phosphodiesterase activity.)

Experiment [11] concerns the target Somatostatin receptor type 1 (Homo sapiens, UniProt P30872). The experiment can be described thus: Displacement of [125I]-Tyr-SRIF from SST1 receptor (unknown origin) after 90 mins by gamma counting method.
The species named for experiment [12] is Homo sapiens. Put plainly: Selectivity ratio of Ki for displacement of [125I]-Tyr-SRIF from recombinant human SST2A receptor expressed in CHOK1 cell membranes to Ki for displacement of [125I]-Tyr-SRIF from recombinant human SST4 receptor expressed in CHOK1 cell membranes.
The species named for experiment [13] is Homo sapiens. The experiment can be described thus: Selectivity ratio of Ki for displacement of [125I]-Tyr-SRIF from SST3 receptor (unknown origin) to Ki for displacement of [125I]-Tyr-SRIF from recombinant human SST4 receptor expressed in CHOK1 cell membranes.

T1 sequence (P30874 whole entry): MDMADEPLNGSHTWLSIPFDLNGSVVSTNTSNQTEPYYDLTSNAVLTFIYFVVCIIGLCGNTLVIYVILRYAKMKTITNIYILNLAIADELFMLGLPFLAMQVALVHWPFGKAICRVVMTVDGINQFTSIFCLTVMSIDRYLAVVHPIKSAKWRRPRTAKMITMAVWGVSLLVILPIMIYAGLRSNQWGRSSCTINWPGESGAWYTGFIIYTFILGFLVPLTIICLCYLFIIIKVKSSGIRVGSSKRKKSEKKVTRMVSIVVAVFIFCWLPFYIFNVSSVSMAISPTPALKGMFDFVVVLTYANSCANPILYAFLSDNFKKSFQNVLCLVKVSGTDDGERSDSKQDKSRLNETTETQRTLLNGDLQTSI
Chain of Somatostatin receptor type 1 (P30872 whole entry): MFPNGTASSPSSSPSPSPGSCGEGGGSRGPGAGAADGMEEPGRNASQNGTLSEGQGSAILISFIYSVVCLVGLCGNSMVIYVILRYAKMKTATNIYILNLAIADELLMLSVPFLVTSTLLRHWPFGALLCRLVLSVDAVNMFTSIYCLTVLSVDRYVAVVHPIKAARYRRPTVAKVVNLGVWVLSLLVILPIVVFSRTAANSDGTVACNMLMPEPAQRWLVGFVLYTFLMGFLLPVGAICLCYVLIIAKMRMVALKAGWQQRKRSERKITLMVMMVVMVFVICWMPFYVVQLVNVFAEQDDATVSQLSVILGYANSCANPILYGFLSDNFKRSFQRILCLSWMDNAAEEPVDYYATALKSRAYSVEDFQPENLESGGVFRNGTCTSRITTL
Chain of Somatostatin receptor type 3 (P32745 whole entry): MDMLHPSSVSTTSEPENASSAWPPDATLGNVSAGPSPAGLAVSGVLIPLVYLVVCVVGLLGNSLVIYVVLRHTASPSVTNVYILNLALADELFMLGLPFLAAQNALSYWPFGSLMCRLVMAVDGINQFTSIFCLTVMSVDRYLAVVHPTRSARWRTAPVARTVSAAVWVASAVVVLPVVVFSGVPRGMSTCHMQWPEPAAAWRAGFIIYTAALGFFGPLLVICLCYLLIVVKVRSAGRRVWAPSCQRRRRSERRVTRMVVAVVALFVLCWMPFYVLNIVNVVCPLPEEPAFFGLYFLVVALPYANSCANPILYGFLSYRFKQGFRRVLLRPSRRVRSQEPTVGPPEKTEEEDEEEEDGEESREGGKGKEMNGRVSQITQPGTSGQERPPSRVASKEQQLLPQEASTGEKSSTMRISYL

The term Ki denotes the dissociation constant of the complex between target and ligand, obtained from inhibition or displacement. In the case of `Clc1ccc(Cn2c(CCc3c[nH]cn3)nnc2Cc2c[nH]c3ccccc23)cc1Cl`, the Ki in experiment [1] and in [2] was greater than 10 µM in each case.
For `COC(=O)[C@H](CCCN=C(N)N)NC(=O)CCCc1c(-c2ccccc2)[nH]c2c(F)cc(F)cc12`, the Ki in experiment [3] turned out to be 4.72 µM; in experiment [4], 0.0007 µM.
Consider `Clc1ccc(Cn2c(CCc3c[nH]c4ccccc34)nnc2C2CCNCC2)cc1Cl`, for which the Ki in experiment [1] and in [2] was greater than 10 µM in each case.
Consider `Clc1ccc(Cc2nnc(C3CCNCC3)n2CCc2c[nH]c3ccccc23)cc1Cl`, for which the Ki in [2] was greater than 10 µM.
For the molecule `Clc1ccc(Cn2c(Cc3c[nH]c4ccccc34)nnc2C2CCNCC2)cc1Cl`, the Ki in experiment [2] was greater than 10 µM.
Turning to `c1ccc(Cn2c(CCc3c[nH]c4ccccc34)nnc2C2CCNCC2)cc1`, the Ki in [1] and in experiment [2] was greater than 10 µM throughout.
As to `c1ccc(Cn2c(CCc3c[nH]cn3)nnc2CCc2c[nH]c3ccccc23)cc1`, the Ki in experiment [2] is 4.47 µM.
Consider `c1ccc(Cn2c(CCc3c[nH]cn3)nnc2Cc2c[nH]c3ccccc23)cc1`, for which, in experiment [2], the Ki is greater than 10 µM.
`NCCCc1nnc(CCc2c[nH]c3ccccc23)n1Cc1ccc(Cl)c(Cl)c1`: the Ki in experiment [1] and in experiment [2] was greater than 10 µM each time.
On to `NCCCc1nnc(Cc2c[nH]c3ccccc23)n1Cc1ccccc1`, for which the Ki in experiment [2] was greater than 10 µM.
In the case of `Cc1ccc(S(=O)(=O)N[C@@H](CCN)C(=O)N[C@@H](Cc2ccccc2)C(N)=O)c2ccccc12`, in experiment [5], the Ki was greater than 5 µM.
Take `c1ccc(CCn2c(CCc3c[nH]cn3)nnc2CCc2c[nH]c3ccccc23)cc1`: the Ki is greater than 10 µM in experiment [1] and 2.03 µM in experiment [2].
For the molecule `Clc1ccc(Cn2c(CCc3c[nH]cn3)nnc2CCc2c[nH]c3ccccc23)cc1Cl`, the Ki in experiment [1] was greater than 10 µM; in experiment [2], 1.43 µM.
With `NCCCn1c(CCc2c[nH]c3ccccc23)nnc1Cc1ccc(Cl)c(Cl)c1`, the inhibitory constant (Ki) in [1] was greater than 10 µM; in [2], 2.38 µM.
Turning to `NCCCc1nnc(Cc2c[nH]c3ccccc23)n1Cc1ccc(Cl)c(Cl)c1`, the Ki in experiment [1] and in experiment [2] was greater than 10 µM in each case.
For the molecule `NCCCc1nnc(CCc2c[nH]c3ccccc23)n1Cc1ccccc1`, the Ki in experiment [1] was greater than 10 µM; in [2] it was less than 10 µM.
Broadly, the EC50 is the concentration at which the effect is half-maximal. Turning to `Clc1ccc(Cc2nnc(CCc3c[nH]c4ccccc34)n2CCCc2c[nH]cn2)cc1Cl`, the Ratio Ki is greater than 500 in the experiment filed under Homo sapiens [6], 250 in the experiment filed under Homo sapiens [7], greater than 500 in the experiment listed under Homo sapiens [12] and 350 in the experiment filed under Homo sapiens [13]. Besides, the Ki in experiment [1] was greater than 10 µM; in [8], greater than 10 µM; in [9], 6.63 µM; in [2] it was 0.019 µM; in experiment [11], 4.75 µM. The EC50 in experiment [10] was 0.0068 µM.
In the case of `c1ccc(Cn2c(Cc3c[nH]c4ccccc34)nnc2C2CCNCC2)cc1`, the Ki in [1] and in experiment [2] was greater than 10 µM each time.
As for `NCCCc1nnc(Cc2ccc(Cl)c(Cl)c2)n1CCc1c[nH]c2ccccc12`, the Ki in experiment [2] was greater than 10 µM.
With `Clc1ccc(Cc2nnc(CCc3c[nH]cn3)n2CCc2c[nH]c3ccccc23)cc1Cl`, the Ki is greater than 10 µM in [1] and 4.8 µM in experiment [2].
